Experimental data taken from PMC3914206.

Key:
Type in all cases: binding
panel of 442 kinases [1] = biological target: T1, panel of 442 kinases (Homo sapiens, UniProt O75116); conditions: Compound Concentration 10 µM
T1 construct: purchased KINOMEscan
Excerpt: (§1) We assessed the selectivity of members of this scaffold using the KINOMEscan methodology across a near comprehensive panel of 442 kinases [[18,27]].

panel of 442 kinases [2] = biological target: T2, panel of 442 kinases (Homo sapiens, UniProt P30291); conditions: kinase WEE1; compound concentration 10 µM
T2 construct: purchased KINOMEscan
Excerpt: as §1

panel of 442 kinases [3] = biological target: T3, panel of 442 kinases (Homo sapiens, UniProt P52564); conditions: Compound Concentration 10 µM
T3 construct: purchased KINOMEscan
T3 sequence (P52564 1-334): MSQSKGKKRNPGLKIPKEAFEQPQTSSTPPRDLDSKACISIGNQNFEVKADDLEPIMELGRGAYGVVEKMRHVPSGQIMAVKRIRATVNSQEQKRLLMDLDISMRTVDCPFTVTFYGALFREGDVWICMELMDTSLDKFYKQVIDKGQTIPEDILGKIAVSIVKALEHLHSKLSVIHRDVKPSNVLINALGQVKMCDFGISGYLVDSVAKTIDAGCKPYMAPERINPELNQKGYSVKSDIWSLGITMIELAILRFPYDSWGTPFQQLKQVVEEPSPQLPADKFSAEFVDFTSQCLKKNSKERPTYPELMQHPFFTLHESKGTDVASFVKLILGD
Excerpt: as §1

T2 sequence (P30291 whole entry): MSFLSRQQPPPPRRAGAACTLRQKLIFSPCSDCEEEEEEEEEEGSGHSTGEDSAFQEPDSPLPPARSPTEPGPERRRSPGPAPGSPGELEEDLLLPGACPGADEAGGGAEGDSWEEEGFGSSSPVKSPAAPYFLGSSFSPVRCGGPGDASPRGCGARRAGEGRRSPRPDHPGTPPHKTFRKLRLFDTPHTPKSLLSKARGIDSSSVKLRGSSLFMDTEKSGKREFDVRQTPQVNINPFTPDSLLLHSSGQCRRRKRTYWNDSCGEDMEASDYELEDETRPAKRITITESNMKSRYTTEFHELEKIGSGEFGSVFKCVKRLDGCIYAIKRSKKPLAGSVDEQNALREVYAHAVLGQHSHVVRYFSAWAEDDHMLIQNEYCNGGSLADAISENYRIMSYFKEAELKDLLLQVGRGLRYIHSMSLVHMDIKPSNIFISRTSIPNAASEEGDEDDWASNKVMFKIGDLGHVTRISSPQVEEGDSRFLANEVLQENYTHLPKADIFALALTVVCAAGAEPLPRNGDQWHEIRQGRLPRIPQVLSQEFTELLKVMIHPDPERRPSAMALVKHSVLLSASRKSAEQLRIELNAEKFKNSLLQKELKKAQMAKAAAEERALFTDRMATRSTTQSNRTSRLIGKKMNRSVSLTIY
T1 sequence (O75116 whole entry): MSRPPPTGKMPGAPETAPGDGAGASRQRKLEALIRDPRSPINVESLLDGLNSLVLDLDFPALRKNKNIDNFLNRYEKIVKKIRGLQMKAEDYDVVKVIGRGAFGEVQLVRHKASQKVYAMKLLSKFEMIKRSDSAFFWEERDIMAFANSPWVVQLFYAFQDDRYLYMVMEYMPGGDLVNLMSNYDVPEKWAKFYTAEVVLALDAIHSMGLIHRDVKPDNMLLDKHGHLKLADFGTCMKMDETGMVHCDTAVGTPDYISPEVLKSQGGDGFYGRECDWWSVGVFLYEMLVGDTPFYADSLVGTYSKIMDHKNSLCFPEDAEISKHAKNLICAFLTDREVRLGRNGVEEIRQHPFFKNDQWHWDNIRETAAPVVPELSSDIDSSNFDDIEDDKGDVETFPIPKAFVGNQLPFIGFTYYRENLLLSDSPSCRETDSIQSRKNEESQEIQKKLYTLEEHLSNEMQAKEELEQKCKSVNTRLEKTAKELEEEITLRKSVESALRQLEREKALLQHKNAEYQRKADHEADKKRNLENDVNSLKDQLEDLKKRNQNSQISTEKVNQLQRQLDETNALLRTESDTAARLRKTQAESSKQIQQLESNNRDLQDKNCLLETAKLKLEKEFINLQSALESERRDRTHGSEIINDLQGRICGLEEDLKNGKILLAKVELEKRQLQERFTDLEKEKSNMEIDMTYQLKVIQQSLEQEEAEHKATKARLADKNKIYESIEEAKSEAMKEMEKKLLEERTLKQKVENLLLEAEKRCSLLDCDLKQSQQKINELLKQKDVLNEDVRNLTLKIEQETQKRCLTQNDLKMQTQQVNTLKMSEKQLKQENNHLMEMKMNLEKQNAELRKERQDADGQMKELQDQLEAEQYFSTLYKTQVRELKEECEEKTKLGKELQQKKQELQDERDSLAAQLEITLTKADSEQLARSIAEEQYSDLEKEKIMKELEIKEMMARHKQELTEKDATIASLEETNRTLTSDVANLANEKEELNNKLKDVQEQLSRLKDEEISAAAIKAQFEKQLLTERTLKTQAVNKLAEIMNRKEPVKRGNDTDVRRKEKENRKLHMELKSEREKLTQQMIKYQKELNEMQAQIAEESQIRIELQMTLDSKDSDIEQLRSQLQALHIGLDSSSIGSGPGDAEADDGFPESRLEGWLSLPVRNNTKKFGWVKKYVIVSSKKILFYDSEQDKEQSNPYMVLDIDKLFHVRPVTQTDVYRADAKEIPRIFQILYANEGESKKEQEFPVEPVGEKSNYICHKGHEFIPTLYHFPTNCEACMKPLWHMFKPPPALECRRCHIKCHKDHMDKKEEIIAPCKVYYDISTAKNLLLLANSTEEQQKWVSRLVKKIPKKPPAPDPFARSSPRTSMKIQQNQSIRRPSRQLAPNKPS

Row | SMILES | KINOMEscan: ROCK2 (panel of 442 kinases [1]) | % Ctrl, WEE1 (panel of 442 kinases [2]) [% Ctrl] | KINOMEscan: MEK6 (panel of 442 kinases [3])
1 | COc1cc(C(=O)N2CCC(N3CCN(C)CC3)CC2)ccc1Nc1ncc2c(n1)N(C1CCCC1)c1ccccc1C(=O)N2C [Compound 25, 11-cyclopentyl-2-((2-methoxy-4-(4-(4-methylpiperazin-1-yl)piperidine-1-carbonyl)phenyl)amino)-5-methyl-5H-benzo[e]pyrimido[5,4-b][1,4]diazepin-6(11H)-one] | 79 | 98 | 61
2 | CCOc1cc(C(=O)N2CCC(N3CCN(C)CC3)CC2)ccc1Nc1ncc2c(n1)N(C1CCCC1)c1ccccc1C(=O)N2C [Compound 26] | 83 | 100 | 84
3 | COc1cc(C(=O)N2CCC(N3CCN(C)CC3)CC2)ccc1Nc1ncc2c(n1)N1CCc3cccc(c31)C(=O)N2C [Compound 24] | 65 | 82 | 66
4 | COc1cc(C(=O)N2CCC(N3CCN(C)CC3)CC2)ccc1Nc1ncc2c(n1)N(C)c1ccccc1C(=O)N2C [15 (LRRK2-IN-1)] | 87 | 100 | 83
